Assay results taken from EP0097071A1, “Benzhydryl sulfinylacetamide derivatives and their therapeutical use” (LABORATOIRE L. LAFON Société anonyme dite:, priority 1982, dated 1983).

Legend:
souris mâle [1] = experiment: Pentobarbital-induced sleep duration; assay type: in vivo
Excerpt: Les composés selon l'invention se distinguent du benzhydrylsulfinylacétamide (CRL 40476) précité par une différence d'action vis-à-vis du sommeil barbiturique. […]. Cette différence d'action qui est intéressante sur le plan thérapeutique est illustrée par le tableau IV

[2] = cited from earlier work
SNC = experiment: Essential activity on the CNS (Tableau I and conclusions of the neuropsychopharmacological study); assay type: in vivo; settings: in vivo
Excerpt: Dans le tableau I ci-après, on a consigné un certain nombre de composés selon la formule I de façon nullement limitative, en mentionnant l'activité essentielle sur le SNC.
Les composés de formule I agissent tous sur le SNC. Les produits des exemples 1-3 et 7-8 sont des agents stimulants, en revanche les produits des exemples 4-6 sont des agents sédatifs.

souris [3] = experiment: Electroshock; assay type: in vivo; settings: dose not stated
Procedure: (§1) On a résumé ci-après les résultats des essais pharmacologiques qui ont été entrepris avec les produits selon la présente addition. Dans ces essais, les produits de formule I à étudier ont été administrés par voie intrapéritonéale, en suspension dans une solution aqueuse de gomme arabique, sous un volume de 20 ml/kg chez la souris mâle et sous un volume de 5 ml/kg chez le rat mâle.
(§2) Les essais sont effectués sur des lots de 10 souris (par dose) 0,5 h après l'administration du CRL 40933.

souris [4] = experiment: Behavioural despair (forced immersion); assay type: in vivo; settings: 32 mg/kg et 128 mg/kg i.p.
Procedure: as §1
Une demi-heure après avoir reçu le CRL 40933, des lots de 10 souris par dose sont placés dans un espace restreint rempli d'eau sur une hauteur de 6 cm; on note la durée d'immobilité entre la 2e et la 6e minute suivant l'immersion.

rats = experiment: Interaction with amphetamine (stereotypies); assay type: in vivo; settings: rat; amphétamine 2 mg/kg i.p.; doses used, not stated
Procedure: as §1
L'amphétamine (2 mg/kg)est injectée par voie intrapéritonéale à des lots de 6 rats, 30 min après l'administration de CRL 40933.

souris [5] = experiment: Motility reduced by habituation to the enclosure; assay type: in vivo
Procedure: as §1
Après 18 h de séjour dans les actimètres, les souris (6 par dose, 12 témoins) reçoivent le CRL 40933. Elles sont aussitôt replacées dans leurs enceintes respectives et, 30 min plus tard, on enregistre leur motilité pendant 30 min.

rat = experiment: Interaction with apomorphine, rat; assay type: in vivo; settings: apomorphine 0,5 mg/kg s.c., dose not stated
Procedure: as §1
Le CRL 40933 est administré à des lots de 6 rats 0,5 h avant l'injection sous-cutanée de 0,5 mg/kg d'apomorphine.

souris [6] = experiment: Interaction with oxotremorine; assay type: in vivo
Procedure: as §1
Le CRL 40933 est administré à des lots de 6 souris 0,5 h avant l'injection intrapéritonéale de 0,5 mg/kg d'oxotrémorine.

souris mâles = experiment: Global behaviour and reactivities, mouse; assay type: in vivo; settings: souris
Procedure: as §1
(§3) Pour apprécier le comportement global et les réactivités, des lots de six animaux (souris mâles ou rats mâles) ont été observés avant administration de chaque produit, puis 15 min, 30 min, 1 h, 2 h, 3 h et 24 h après administration de chaque produit. Les résultats sont consignés dans le tableau III ci-après, […]

souris [7] = experiment: Interaction with apomorphine, mouse; assay type: in vivo
Procedure: as §1
Des lots de 6 souris par dose reçoivent le CRL 40933 0,5 h avant l'injection sous-cutanée d'apomorphine administrée à la dose de 1 ou 16 mg/kg.

souris [8] = experiment: Four plates test; assay type: in vivo; settings: 0,5 h after administration, dose not stated
Procedure: as §1, §2

souris [9] = experiment: Intergroup aggressiveness; assay type: in vivo; settings: for agressivité intergroupes (nombre de combats): dose not stated
Procedure: as §1
Après avoir séjourné pendant 3 semaines dans chacune des moitiés d'une cage séparées par une cloison opaque, des groupes de 3 souris reçoivent le CRL 40933. 30 min plus tard, les deux groupes d'une même cage sont réunis par retrait de la cloison et on note le nombre de combats qui surviennent en 10 min.

Solubility = settings: for solubility: water
souris [10] = experiment: Interaction with reserpine; assay type: in vivo; settings: 128 mg/kg i.p.
Procedure: as §1
Quatre heures après l'injection intrapéritonéale de 2,5 mg/kg de réserpine, des lots de 6 souris reçoivent le CRL 40933.

souris [11] = experiment: Traction test; assay type: in vivo; settings: 0,5 h after administration, dose not stated
Procedure: as §1, §2

souris [12] = experiment: Spontaneous motility (actimeter); assay type: in vivo
Procedure: as §1
Une demi-heure, après avoir reçu le CRL 40933, les souris (6 par dose, 12 témoins) sont placées en actimètre où leur motilité est enregistrée pendant 30 min.

rats mâles = experiment: Global behaviour and reactivities, rat; assay type: in vivo; settings: 64 mg/kg i.p.
Procedure: as §1, §3

souris [13] = experiment: Motility reduced by hypoxic aggression (acute hypobaric anoxia); assay type: in vivo
Procedure: as §1
Une demi-heure après avoir reçu le CRL 40933, les souris (10 par dose, 20 témoins) sont soumises à une anoxie hypobare aiguë [dépression de 600 mm Hg (soit environ 8 x 10^4 pascals) en 90 s, puis détente de 45 s], puis elles sont placées en actimètre où leur motilité est enregistrée pendant 10 min.

souris [14] = experiment: Asphyxic anoxia (gallamine triethiodide); assay type: in vivo; settings: dose not stated
Procedure: as §1
Des lots de 10 souris par dose reçoivent le CRL 40933 30 min avant l'administration intrapéritonéale de 32 mg/kg de triiodoéthylate de gallamine.

souris mâle [15] = experiment: Toxicity, DL-0; assay type: in vivo; settings: i.p.
Procedure: as §1
La toxicité a été étudiée chez la souris mâle. Les résultats relatifs à la DL-0 (dose minimale non mortelle) sont donnés dans le tableau II ci-après.

souris [16] = experiment: Interaction with barbital (sleep); assay type: in vivo
Procedure: as §1
Une demi-heure après l'administration de CRL 40933, des lots de 10 souris reçoivent une injection intrapéritonéale de 220 mg/kg de barbital.

[17] = dose 128 mg/kg i.p., 0,5 h before pentobarbital

In the case of `NC(=O)C[S+]([O-])C(c1ccccc1)c1ccccc1` (stereo not drawn) [CRL 40476, benzhydrylsulfinylacétamide, reference compound], the “Action sur la durée du sommeil induit par le pentobarbital (50 mg/kg i.p.) effet” value (souris mâle [1]; dose de 8 à 256 mg/kg i.p., 0,5 h before pentobarbital) is listed as “(b) (pas de modification significative de la durée du sommeil.)”, the “durée du sommeil barbiturique induit par le pentobarbital” value (souris mâle [1]; pentobarbital 50 mg/kg i.p. 0,5 h after i.p. test product, dose not stated) is listed as “ne modifie pas” and the “excitation avec hyperréactivité” value ([2]; in vivo) is listed as “présence”. The “potentialisation des effets de l'apomorphine et de l'amphétamine” value ([2]; in vivo) was “absence”, the stéréotypies ([2]; sauf à fortes doses) was “absence” and the “Activité sur le SNC” value (SNC) was “stimulant”.

With `CNC(=O)C[S+]([O-])C(c1ccccc1)c1ccccc1` (stereo not drawn) [Exemple 1, N-méthyl-benzhydrylsulfinylacétamide] the “effets convulsivants de l'électrochoc” value (souris [3]) was “ne s'oppose pas”, the “durée d'immobilité de la souris placée en immersion forcée” value (souris [4]) was “diminue nettement” and the “stéréotypies amphétaminiques” value (rats) was “ne modifie pratiquement pas”. The “activité motrice chez la souris habituée à son enceinte” value (souris [5]; 8 mg/kg, 32 mg/kg et surtout 128 mg/kg i.p.) was “reprise d'activité motrice”, the “stéréotypies induites par l'apomorphine” value (rat) was “laisse inchangées” and the “action hypothermisante de l'oxotrémorine” value (souris [6]; 8 mg/kg à 128 mg/kg i.p.) was “s'oppose modérément”. The “signes de stimulation cholinergique périphérique dus à l'oxotrémorine” value (souris [6]; dose not stated) was “laisse pratiquement inchangés”, the “tremblements induits par l'oxotrémorine” value (souris [6]; dose not stated) was “ne modifie pas” and the “Action sur la durée du sommeil induit par le pentobarbital (50 mg/kg i.p.) effet” value (souris mâle [1]; [17]) was “(a)”. For the same molecule, the “Observations (comportement global et réactivités)” value (from here on “Observations”) (souris mâles; 64 mg/kg i.p.) was “excitation”, the “Observations” value (souris mâles; 128 mg/kg i.p.) was “excitation - hypothermie (-1,5°C) pendant 0,5 h” and the hypothermie (souris mâles; 128 mg/kg i.p.) was -1,5 °C. The “Observations” value (souris mâles; 256 mg/kg i.p.) was “dyspnée, excitation, démarche titu-bante”, the mortalité (souris mâles; 256 mg/kg i.p.) was “pas de mortalité” and the “Activité sur le SNC” value (SNC) was “stimulant”. For the same molecule, the “conclusion of the neuropsychopharmacological study: main type of CNS effect” value (SNC) was “composante excitante”, the “hypothermie induite par l'apomorphine” value (souris [7]; 128 mg/kg i.p.) was “ne s'oppose pas” and the “own effect on temperature” value (souris [7]; 128 mg/kg i.p.) was “hypothermisant”. For the same molecule, the “comportement de verticalisation et stéréotypies (apomorphine)” value (souris [7]; dose not stated) was “ne modifie pas”, the “nombre de passages punis” value (souris [8]) was “n'entraîne pas d'augmentation” and the “agressivité intergroupes (nombre de combats)” value (souris [9]) was “ne modifie pas nettement”. For the same molecule, the “solubilité dans l'éther et l'acétate d'éthyle” value (Solubility) was “insoluble”, the “solubilité dans le méthanol, l'éthanol et l'acétoné” value (Solubility) was “soluble” and the solubility (Solubility) was less than 1000 µg/mL. The “hypothermie induite par la réserpine” value (souris [10]) was “antagonise”, the “ptôsis réserpinique” value (souris [10]) was “sans modifier” and the “déficit moteur (traction)” value (souris [11]) was “ne provoque pas d'incapacité motrice majeure”. For the same molecule, the “motilité spontanée” value (souris [12]; 32 mg/kg et 128 mg/kg i.p.) was “augmentation modérée”, the “Observations” value (rats mâles) was “mydriase pendant 3 h” and the “récupération motrice après séjour bref dans une enceinte à pression réduite” value (souris [13]; 128 mg/kg i.p.) was “amélioration modérée (mais non significative)”. The “délai d'apparition des convulsions et de la mort consécutives à une anoxie asphyxique” value (souris [14]) was “ne modifie pas”, the DL-O (souris mâle [15]) was “supérieure à 256 mg/kg” and the “durée du sommeil barbiturique” value (souris [16]; 32 mg/kg i.p.) was “n'entraîne pas de modifications sensibles”. For the same molecule, the “nombre de souris endormies” value (souris [16]; 32 mg/kg i.p.) was “diminution nette” and the “durée du sommeil barbiturique” value (souris [16]; 128 mg/kg i.p.) was “diminue nettement”.

With `O=C(C[S+]([O-])C(c1ccccc1)c1ccccc1)N1CCCCC1` (stereo not drawn) [Exemple 5, N-(benzhydrylsulfinylacétyl)-pipéridine] the “mobilité réduite (habituation à l'enceinte)” value (souris [5]; souris, dose not stated) was “n'agit pas nettement”, the “Action sur la durée du sommeil induit par le pentobarbital (50 mg/kg i.p.) effet” value (souris mâle [1]; [17]) was “(a)” and the “Activité sur le SNC” value (SNC) was “sédatif”. For the same molecule, the “conclusion of the neuropsychopharmacological study: main type of CNS effect” value (SNC) was “type sédatif”, the agressivité intergroupes (souris [9]; 32 mg/kg i.p.) was “diminue de moitié” and the “agressivité intergroupes (nombre de combats)” value (souris [9]) was “effet antiagressif”. The solubility (Solubility) was less than 1000 µg/mL, the “motilité spontanée” value (souris [12]; all doses used (8 mg/kg à 256 mg/kg), intensity increasing with dose) was “hypomotilité” and the “mobilité réduite (agression hypoxique)” value (souris [13]; dose not stated) was “n'agit pas nettement”. For the same molecule, the DL-O (souris mâle [15]) was “supérieure à 1024 mg/kg”.
